Where “and” joins values, the source holds several entries; their conditions need not be identical. Identical values can stand only once. Like-named read-outs stand apart in the source and are kept apart here.
What was measured:
[1] = biological target: T1, recombinant RT (HIV-1BH10) (Human immunodeficiency virus type 1 group M subtype B, UniProt P03366); experiment: Reverse transcriptase enzyme inhibition assays; assay type: biochemical; details: read-out: IC50 recombinant HIV-1 RT
T1 construct: Purified recombinant RT (HIV-1BH10) was obtained from the University of Alabama; purchased University of Alabama, Center for AIDS research (obtained from)

[2] = system: HIV-1 strains (SKI, RF, DV, IIIB, ADP/141); experiment: microbe, parasite or virus in culture; assay type: cell-based
[3] = biological target: recombinant HIV-1 integrase (wild-type) (Human immunodeficiency virus type 1 group M subtype B, UniProt P12497); experiment: HIV-1 integrase 3′-processing and strand transfer assays; assay type: biochemical; set-up: Purified recombinant HIV-1 integrase enzyme (wild-type) was a generous gift from Dr. R. Craigie; purchased gift of Dr. R. Craigie, Laboratory of Molecular Biology, NIDDK (not bought)
Procedure: Integrase enzyme assays. Purified recombinant HIV-1 integrase enzyme (wild-type) was a generous gift from Dr. R. Craigie, Laboratory of Molecular Biology, National Institute of Diabetes and Digestive and Kidney Diseases. The enzyme (0.25 μM) was preincubated in reaction buffer at 20° C. for 30 minutes. All 3′-processing and strand-transfer reactions were performed as described previously by Fresen et al. (Fresen, et al., Proc. Natl. Acad. Sci. USA 90:2399-2403 (1993)) and Mazumder et al. (Mazumder, et al., Proc. Natl. Acad. Sci. USA 91:5771-5775 (1994)). Enzyme reactions were quenched by the addition of Maxam-Gilbert loading dye, and an aliquot was electrophoresed on a denaturing 20% polyacrylamide gel. Gels were then dried and subjected to autoradiography using Kodax XAR-2 film or exposed in a Molecular Dynamics Phospholmager cassette.
Integrase was preincubated at a final concentration of 200 (for HIV-1 and HIV-2) or 600 nM (for FIV and SIV) with inhibitor in reaction buffer (50 mM Nac1, 1 mM HEPES, pH 7.5, 50 μM dithiothreitol, 10% glycerol (wt/vol), 7.5 mM MnCl2 or MgCL2 (when specified), 0.1 mg/mL bovine serum albumin, 20 mM 2-mercaptoethanol, 10% dimethyl sulfoxide, and 25 mM MOPS, pH 7.2) at 30° C. for 30 minutes. When magnesium was used as the divalent metal ion, polyethylene glycol was added at a final concentration of 5% to increase activity as previously described (Engelman & Craigie, 1995). Preincubation for 30 minutes of the enzyme with inhibitor was performed to optimize increases the inhibitory activity in the 3′-processing reaction (Fesen et al., 1994). Then, 30 nM of the 5′-end ^32P-labeled linear oligonucleotide substrate was added, and incubation was continued for an additional 1 hr. The final reaction volume was 16 μL.
Electrophoresis and quantitation. Reactions were quenched by the addition of an equal volume […] of loading dye (98% deionized formamide, 10 mM EDTA, 0.025% xylene cyanol, 0.025% bromophenol blue). An aliquot (5 μL) was electrophoresed on a denaturing 20% polyacrylamide gel (0.09 M Tris-borate pH 8.3, 2 mM EDTA, 20% acrylamide, 8M urea). Gels were dried, exposed in a Molecular Dynamics Phosphorimager cassette, and analyzed using a Molecular Dynamics phosphorimager (Sunnyvale, Calif.). Percent inhibition was calculated using the following equation:
where C, N, and D are the fractions of 21mer substrate converted to 19mer (3′-processing product) or strand transfer products for DNA alone, DNA plus integrase, and integrase plus drug, respectively.
Antiviral assay. The RF laboratory strain of HIV-1 was used to infect established cell lines for one hour at 37° C. prior to washing and resuspension in medium containing increasing concentrations of drug. […] Purified recombinant HIV-1 integrase enzyme (wild-type) was a generous gift from Dr. Craigie, Laboratory of Molecular Biology, NIDDK. All 3′-processing and strand-transfers were performed as described previously by Fresen et al. (Fresen et al. (1993) Proc. Natl. Acad. Sci. VSA 90, 2399-2403) and Mazurnder et al. (Mazumder et al. (1994) Proc. Natl. Acad. Sci. USA 91, 5771-75).

[4] = system: HIV-1SKI; experiment: Single cycle analysis of HIV-1 cDNA, CEM-SS cells; assay type: cell-based; details: 10- to 100-fold over IC50
[5] = system: HIV-1 clinical isolates; experiment: microbe, parasite or virus in culture; assay type: cell-based; details: PBLs, read-out: IC50 viral production
[6] = system: HIV-1 laboratory isolates; experiment: HIV-1 infection of PBMCs (p24); assay type: cell-based; details: HIV-1 IIIB, read-out: IC50 viral production
[7] = biological target: HIV-1 RT (Human immunodeficiency virus type 1 group M subtype B, UniProt P04585); experiment: In vitro inhibition of HIV-1 RT (kinetic analysis); assay type: biochemical
[8] = system: HIV-1DV; experiment: HIV-1 p24 production in SUP T1 cells; assay type: cell-based
[9] = biological target: HIV-1 gp120 interaction with CD4 (Human immunodeficiency virus type 1 group M subtype B, UniProt P04578)
[10] = system: HIV-1 strain DV; experiment: HIV-1 induced syncytia formation assay in SUP T1 cells; assay type: cell-based; details: SUP T1, HIV-1DV, four days; read-out: IC50 Syn (syncytium inhibition)
[11] = biological target: HIV-1 integrase (wild-type and deletion mutants) (Human immunodeficiency virus type 1 group M subtype B, UniProt P12497); experiment: UV crosslinking DNA binding experiments; details: enzyme preincubated with oligo
Procedure: UV crosslinking experiments. The method used has been described by Engleman et al. Engelman, et al., J. Virol. 68, 5911-5917 (1994). Briefly, integrase (at the indicated concentration) was incubated with substrate in reaction buffer as above for 5 minutes at 30° C. Reactions were then irradiated with a UV transilluminator (254 nm wavelength) from 3 cm above (2.4 mW/cm2) at room temperature for 10 minutes. An equal volume (16 μL) of 2X SDS-PAGE buffer (100 mM Tris, pH 6.8, 4% 2-mercaptoethanol, 4% SDS, 0.2% bromophenol blue, 20% glycerol) was added to each reaction. Twenty μL aliquots were heated at 95° C. for 3 minutes prior to loading on a 12% or 18% SDS-polyacrylamide gel. The gel was run at 120 V for 1.5 hours, dried, and exposed in a Phosphorlmager cassette. […] For the competition experiments (FIG. 29), integrase (200 nM) was preincubated with either the radiolabeled viral DNA substrate (20 nM) or T30177 (20 nM) for 5 minutes at 30° C. prior to the addition of competitor DNA at the indicated concentration.

[12] = 3′-processing, read-out: Anti-Integrase Assay IC50 3′-proc
[13] = strand transfer, read-out: Anti-Integrase Assay IC50 strand tran.

With `Cc1cn([C@H]2C[C@H](N=[N+]=[N-])[C@@H](COP(=O)(O)OP(=O)(O)OP(=O)(O)O)O2)c(=O)[nH]c1=O` [AZT 5′-triphosphate, reference compound] the IC50 ([1]; template gapped duplex DNA, duplicate experiments) was 0.47 µM and 0.4 µM and the IC50 ([1]; template poly(rA)p(dT)12-18, duplicate experiments) was 0.59 µM and 0.6 µM.
For `Nc1ccn([C@H]2CC[C@@H](CO)O2)c(=O)n1` [ddC, 2′,3′-dideoxycytidine], the IC50 ([2]; Human immunodeficiency virus 1, IIIB, CEM-SS, read-out: Antiviral Assay IC50 IIIB, HIV-1 IIIB, CEM-SS or MT4) was 0.078 µM, the IC50 ([2]; Human immunodeficiency virus 1, IIIB, CEM-SS, read-out: Antiviral Assay IC50 RF, HIV-1 RF, CEM-SS or MT4) was 0.057 µM and the IC50 ([2]; Human immunodeficiency virus 1, IIIB, CEM-SS, read-out: Antiviral Assay IC50 SKI, HIV-1 SKI, CEM-SS or MT4) was 0.26 µM. The IC50 ([2]; Human immunodeficiency virus 1, IIIB, CEM-SS, read-out: IC50 virus production, HIV-1 RF, CEM-SS, MOI 0.01) was 0.057 µM, the IC50 [3, 12] was greater than 1 µM and the IC50 [3, 13] was greater than 1 µM. The “viral cDNA 12 hours post-infection, drug added at time of infection” value [4] was “no detectable viral DNA”.
`O=c1[nH]cnc2c1ncn2[C@H]1CC[C@@H](CO)O1` [ddI, 2′,3′-dideoxyionsine] showed an IC50 ([5]; clinical isolate 942751) of 2.2 ± 0.02 µM, an IC50 ([5]; clinical isolate BAKI (SI)) of 2.61 ± 0.003 µM and an IC50 ([5]; clinical isolate ROJO (SI)) of 0.87 ± 0.001 µM. It also gave an IC50 ([5]; clinical isolate VIHU (NSI)) of 1.21 ± 0.009 µM, an IC50 ([5]; clinical isolate WEJO (SI)) of 2.18 ± 0.026 µM and an IC50 ([5]; clinical isolate WOME (SI)) of 0.41 ± 0.008 µM. The IC50 [6] was 0.74 ± 0.05 µM.
In the case of “5′-gtggtgggtgggtgggtggtgggtggtggtgtgggtgggtggtg-3′ [I100-21]”, the Ki [7] is reported as 0.001 µM, the IC50 ([7]; read-out: ID50 (the source's name)) is reported as 0.004 µM and the “Percent p24 relative to infected untreated control, Day 7” value ([8]; 2.5 uM, drug removed day 4) is reported as 0.0%. For the same compound, the “Percent p24 relative to infected untreated control, Day 11” value ([8]; 2.5 uM, drug removed day 4) was 0.0%, the “Percent p24 relative to infected untreated control, Day 4” value ([8]; 2.5 uM, medium replaced day 4) was 0.0% and the IC50 ([8]; SUP T1, HIV-1DV, four days) was less than 0.2 µM. For the same compound, the “inhibition of detection of immobilized gp120 by HRP-α-gp120 antibody” value ([9]; control experiment) was “slightly inhibit”, the IC50 ([9]; read-out: ID50 [CD4], oligo binding to immobilized CD4) was 0.048 µM and the IC50 ([9]; read-out: ID50 [gp 120], oligo preincubated with soluble gp120) was 0.07 µM. The IC50 [10] was 0.225 µM.
In the case of “5′-ggttggtgtggttgg-3′ [T30659, reference compound]”, the IC50 ([2]; HIV-1 IIIB, CEM-SS or MT4, read-out: Antiviral Assay IC50 IIIB) is reported as greater than 20 µM, the IC50 ([2]; HIV-1 RF, CEM-SS or MT4, read-out: Antiviral Assay IC50 RF) is reported as greater than 20 µM and the IC50 ([2]; HIV-1 SKI, CEM-SS or MT4, read-out: Antiviral Assay IC50 SKI) is reported as 2.81 µM. For the same compound, the IC50 ([2]; anti-HIV-1 virus production, read-out: Cell Culture IC50) was greater than 20 µM, the IC50 [3, 12] was greater than 0.5 µM and the IC50 ([3]; read-out: Enzyme IC50 3-′process) was 0.75 µM. For the same compound, the IC50 [3, 13] was greater than 0.5 µM and the “inhibition of integrase binding to radiolabeled U5 DNA substrate” value [11] was “only modest inhibition of DNA binding”.

From patent publication US6355785B1, “Guanosine-rich oligonucleotide integrase inhibitors” (Aronex Pharmaceuticals, Inc., priority 1993, dated 2002)
